Key:
[1] = biological target: T1, rat follicle stimulating hormone receptor (rFSHR) (Rattus norvegicus, UniProt P20395); experiment: Intracellular cAMP measurement (HTRF) assay, antagonism of EC70 of hFSH; type: cell-based; conditions: HEK293 cells expressing rFSHR, 1 ng/ml hFSH (EC70), read-out: Class (IC50 to antagonise an EC70 of FSH receptors agonist such as hFSH)
T1 construct: expressed in transfected cells
T1 sequence (P20395 18-692): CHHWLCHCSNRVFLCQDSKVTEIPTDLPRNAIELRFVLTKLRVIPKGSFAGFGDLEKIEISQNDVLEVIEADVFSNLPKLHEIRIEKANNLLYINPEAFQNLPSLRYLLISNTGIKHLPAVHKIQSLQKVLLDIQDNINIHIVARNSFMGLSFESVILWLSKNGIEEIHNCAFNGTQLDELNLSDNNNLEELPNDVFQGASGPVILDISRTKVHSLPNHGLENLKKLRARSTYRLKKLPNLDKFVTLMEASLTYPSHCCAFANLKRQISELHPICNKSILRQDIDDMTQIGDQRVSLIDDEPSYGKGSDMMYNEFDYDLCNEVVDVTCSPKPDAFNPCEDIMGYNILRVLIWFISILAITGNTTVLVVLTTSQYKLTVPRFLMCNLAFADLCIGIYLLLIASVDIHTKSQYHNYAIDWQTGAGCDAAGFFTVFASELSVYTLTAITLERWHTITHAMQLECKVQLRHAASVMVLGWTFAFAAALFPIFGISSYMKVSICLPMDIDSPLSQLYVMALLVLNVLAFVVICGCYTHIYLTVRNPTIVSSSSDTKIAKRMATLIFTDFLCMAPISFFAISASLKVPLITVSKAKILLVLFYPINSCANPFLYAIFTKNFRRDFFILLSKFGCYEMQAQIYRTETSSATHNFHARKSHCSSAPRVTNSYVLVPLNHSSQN
Description: Intracellular cAMP Measurement Assay
The Intracellular cAMP measurement assay is a functional cell-based assay used to study GPCR function. This method relies on a Time-Resolved Fluorescence (HTRF) assay to measure the cAMP accumulation upon receptor-mediated Gs protein activation in cells expressing recombinant GPCR or in cells from native tissues. In brief, this method is a competitive immunoassay between native cAMP produced by cells and the cAMP labeled with a fluorescent tag. The endogenously produced cAMP competes with exogenous added d2-labelled cAMP for the cAMP binding site on a Eu3+ cryptate labelled anti-cAMP antibody. The d2-labelled cAMP and the Eu^3+ labelled antibody produces a basal fluroresence via HTRF and therefore an intracellular increase in unlabelled cAMP is detected as decrease in this signal. cAMP is one of the most important intracellular mediators. Its concentration in cells can be increased upon binding of many hormones to their receptors. The most studied pathway consists in the release of α-subunit GTP-binding proteins following ligand-receptor interaction, which in turn activates or inhibits the ATP/cAMP conversion function of adenylate cyclase enzyme. cAMP is then involved in many complex regulatory processes such as protein kinase activation or ion channel gating. This method is widely used to study receptor activation of G protein in cells over-expressing GPCRs or in native cells, including FSH receptors expressing cells (Gabriel et al., Assay Drug Dev. Technol., 1, 291-303, 2003).
Transfection and cell culture: The cDNA encoding the rat follicle stimulating hormone receptor (rFSHR), (accession number NM_199237, NCBI Nucleotide database browser) was subcloned into an expression vector containing also the hygromycin resistance gene. Transfection of this vector into HEK293 cells with PolyFect reagent (Qiagen) according to supplier's protocol, and hygromycin treatment allowed selection of antibiotic resistant cells which had integrated stably one or more copies of the plasmid. Positive cellular clones expressing rFSHR were identified in a functional assay measuring cAMP production in cells following stimulation by addition of purified human follicle stimulating hormone (hFSH).
HTRF cAMP assay: On the day of the experiment, cells were detached from the Petri dish and distributed in a low volume, black-walled 384-well plate at a density of 5,000 cells/well in an assay buffer containing 1 mM IBMX to prevent cAMP degradation by cytoplasmic phosphodiesterases. The determination of the cAMP accumulation was performed using an HTRF assay (Trinquet et al., Anal. Biochem., 358, 126-135, 2006). Briefly, cells were incubated for 3 min in the presence of increasing concentrations of negative allosteric modulators (from 1 nM to 60 μM) and then 30 min in the presence of 1 ng/ml of hFSH, an agonist of rat FSH receptor, that has been determined in previous experiments to correspond to the EC70, a concentration that gives 70% of the maximal response of the agonist, and is in accordance with published data (Fox et al., Mol. Endocrin., 15, 378-389, 2001). […] Cells were then lysed by adding the HTRF assay components, the europium cryptate-labeled anti-cAMP antibody, and the XL665-labeled cAMP analog, previously diluted in a HEPES buffer (50 mM, pH 7.0) containing 0.8 M potassium fluoride, 0.2% (w/v) BSA, and 1% (v/v) Triton X-100, a percentage of detergent that ensure complete cell lysis. Assay was then incubated for 1 hr at room temperature, and HTRF signal was measured after excitation at 337 nm, and dual emission at 620 and 665 nm, using a RubyStar fluorimeter (BMG Labtechnologies). Moreover, the fluorescence ratio of an appropriate range of known concentrations of cAMP standards was also included on each assay plate to produce a standard cAMP curve. […]

Structure (SMILES)	melting point [°C]	IC50 [1] [nM]
COc1ccc(C(=O)Nc2ccc(C(C)(C)C#N)c(-c3cncnc3)c2)cc1OC [Example 184, N-[4-(Cyano-dimethyl-methyl)-3-pyrimidin-5-yl-phenyl]-3,4-dimethoxy-benzamide]	198 to 200	≥ 1000
CCc1cc(NC(=O)c2ccc(OC)c(OC)c2)ccc1C(C)(C)CNC(C)=O [Example 200, N-[4-(2-Acetylamino-1,1-dimethyl-ethyl)-3-ethyl-phenyl]-3,4-dimethoxy-benzamide]	203 to 206	< 150
COc1ccc(C(=O)Nc2ccc(C(C)(C)CNC(=O)CCc3ccccc3)cc2)cc1OC [Example 34]	149 to 151	150 to 400
COc1ccc(C(=O)Nc2ccc(C(C)(C)CNC(=O)c3n[nH]c4ccccc34)cc2)cc1OC [Example 87]	214 to 216	150 to 400
COc1ccc(C(=O)Nc2ccc(C(C)(C)CNC(=O)c3ccc4nccn4c3)cc2)cc1OC [Example 190]	194 to 196	≥ 1000
COc1ccc(C(=O)Nc2ccc(C(C)(C)CNC(=O)c3nc4ccc(F)cc4[nH]3)cc2)cc1OC [Example 193, 6-Fluoro-1H-benzoimidazole-2-carboxylic acid {2-[4-(3,4-dimethoxy-benzoylamino)-phenyl]-2-methyl-propyl}-amide]	222 to 224	< 150
COc1ccc(C(=O)Nc2ccc(C(C)(C)CNC(=O)c3csc4ccccc34)cc2)cc1OC [Example 116]	145 to 147	< 150
COc1ccc(C(=O)Nc2ccc(C(C)(C)CNC(C)=O)c(-c3cccnc3)c2)cc1OC [Example 195, N-[4-(2-Acetylamino-1,1-dimethyl-ethyl)-3-pyridin-3-yl-phenyl]-3,4-dimethoxy-benzamide]	234 to 237	≥ 1000
COc1ccc(C(=O)Nc2ccc(C(C)(C)CNC(=O)Cc3c[nH]c4ccccc34)cc2)cc1OC [Example 126]	94 to 96	150 to 400
COc1ccc(C(=O)Nc2ccc(C(C)(C)CNC(=O)c3cc4ccccc4n3C)cc2)cc1OC [Example 108]	176 to 178	400 to 1000
COc1ccc(C(=O)Nc2ccc(C(C)(C)C(N)=O)cc2)cc1OC [Example 21, N-[4-(1-Carbamoyl-1-methyl-ethyl)-phenyl]-3,4-dimethoxy-benzamide]	193 to 195	–
COc1ccc(C(=O)Nc2ccc(C(C)(C)CNC(=O)c3ccsc3)cc2)cc1OC [Example 72]	189 to 190	150 to 400
COc1ccc(C(=O)Nc2ccc(C(C)(C)C#N)c(-c3ccncc3)c2)cc1OC [Example 158, N-[4-(Cyano-dimethyl-methyl)-3-pyridin-4-yl-phenyl]-3,4-dimethoxy-benzamide]	196 to 199	–
COc1ccc(C(=O)Nc2ccc(C(C)(C)CNC(=O)c3nc4ccccc4[nH]3)cc2)cc1OC [Example 162, 1H-Benzoimidazole-2-carboxylic acid {2-[4-(3,4-dimethoxy-benzoylamino)-phenyl]-2-methyl-propyl}-amide]	223 to 226	–
COc1ccc(C(=O)Nc2ccc(C3(CNC(=O)C(C)(C)C)CCCC3)cc2)cc1OC [Example 23, N-(4-{1-[(2,2-Dimethyl-propionylamino)-methyl]-cyclopentyl}-phenyl)-3,4-dimethoxy-benzamide]	165 to 167	–
COc1ccc(C(=O)Nc2ccc(C(C)(C)CNC(C)=O)c(F)c2)cc1OC [Example 151, N-[4-(2-Acetylamino-1,1-dimethyl-ethyl)-3-fluoro-phenyl]-3,4-dimethoxy-benzamide]	186 to 188	–
COc1ccc(C(=O)Nc2cccc(C(C)(C)CNC(C)=O)c2)cc1OC [Example 88, N-[3-(2-Acetylamino-1,1-dimethyl-ethyl)-phenyl]-3,4-dimethoxy-benzamide]	132 to 134	–
COc1ccc(C(=O)Nc2ccc(C3(CNC(C)=O)CC3)cc2)cc1OC [Example 54, N-{4-[1-(Acetylamino-methyl)-cyclopropyl]-phenyl}-3,4-dimethoxy-benzamide]	204 to 206	–
COc1ccc(C(=O)Nc2ccc(C(C)(C)C#N)c(-c3cccc(Cl)c3)c2)cc1OC [Example 157, N-[3′-Chloro-6-(cyano-dimethyl-methyl)-biphenyl-3-yl]-3,4-dimethoxy-benzamide]	144 to 146	–
